{"source": "patent US20120128607A1", "about": "“EXTRACT OF WHOLE SEEDS OF MORNINGA SP, AND USE THEREOF IN COSMETIC AND/OR DERMATOLOGICAL COMPOSITIONS” (PIERRE FABRE DERMO-COSMETIQUE, priority 2009, published 2012)", "key": {"[1]": {"tested_on": "hDES2", "assay": "Model of differentiation of normal human keratinocytes: gene expression (mRNA) of hDES2", "assay_type": "cell-based", "conditions": "NHK, with respect to non-treated cells", "text": "(§1) First, the effects of extracts according to the invention have first been studied from a model of differentiated normal human keratinocytes (NHK).\n(§2) The effect of the extracts of Moringa sp. on the gene expression of different proteins involved in the synthesis or the transport of the epidermal lipids, ABC G1 and hDES2, has been analyzed.\n(§3) The results are expressed in percentage of stimulation of the gene expression (mRNA) of different markers of the epidermal differentiation expressed by the NHKs (with respect to the non-treated cells). A significant positive effect is considered from 100% of stimulation."}, "[2]": {"tested_on": "ABC G1", "assay": "Model of differentiation of normal human keratinocytes: gene expression (mRNA) of ABC G1", "assay_type": "cell-based", "conditions": "NHK, with respect to non-treated cells", "text": "as §1, §2, §3"}, "[3]": {"assay": "DPPH test (antioxidant activity)", "conditions": "methanolic solution of DPPH at 0.06 mM, absorption at 517 nm", "text": "The antioxidant activity of the seed extract of Moringa oleifera according to the present invention has been evaluated with the DPPH test. This test is based on the measure of the capacity for trapping antioxidants of the stable radical 2.2-diphenyl-1-picrylhydrazyl (DPPH). This stable radical, having absorption at 517 nm, is reduced to the corresponding hydrazine when it reacts with a hydrogen donor.\nThe results obtained are expressed in IC50, corresponding to the concentration giving 50% reduction in absorbance of a methanolic solution of DPPH at 0.06 mM."}}, "data": [{"molecule": "CN(CCOc1ccc(CC2SC(=O)NC2=O)cc1)c1ccccn1", "note": "(centres unmarked) [Roziglitazone, roziglitazone]", "values": [{"measurement": "percentage of stimulation of the gene expression (mRNA) of hDES2", "setting": "[1]; 10 μM", "result": 190, "unit": "%"}, {"measurement": "percentage of stimulation of the gene expression (mRNA) of ABC G1", "setting": "[2]; 10 μM", "result": 330, "unit": "%"}]}, {"molecule": "C=C1CC[C@H](O)C/C1=C/C=C1\\CCC[C@]2(C)[C@@H]([C@H](C)CCCC(C)C)CC[C@@H]12", "note": "[Vit D3, vitamin D3]", "values": [{"measurement": "percentage of stimulation of the gene expression (mRNA) of hDES2", "setting": "[1]; 5 μM", "result": 780, "unit": "%"}, {"measurement": "percentage of stimulation of the gene expression (mRNA) of ABC G1", "setting": "[2]; 5 μM", "result": 170, "unit": "%"}]}, {"molecule": "Vitamin E", "values": [{"measurement": "IC50 (concentration giving 50% reduction in absorbance of DPPH solution)", "setting": "[3]", "result": "6 to 10", "unit": "µg/mL"}]}]}
